# In patent publication US4788301A, “Novel allylic amines” (Merrell Dow Pharmaceuticals Inc., priority 1987, dated 1988):
# “Also recorded” adds a separate entry of the source.
# Assays:
# hypertensive rats = test: Antihypertensive activity in vivo in hypertensive rats (Table II); parameters: species or system rat
# Description: The ability of the compounds of this invention to lower blood pressure can be determined in vivo using hypertensive rats according to standard and well known procedures. The test compound is administered intraperitoneally (ip) or orally (po) to rats and the blood pressure monitored continuously. Since DBH is a major enzyme in the synthetic pathway of the catecholamines, it would be expected that the presence of an inhibitor would act to decrease the amount of catecholamines produced, and thereby have an antihypertensive effect.
# purified DBH = test: Time-dependant inhibition of purified DBH (Table III); format: biochemical
# Description: The dopamine β-hydroxylase inhibitory properties of the compounds of this invention can readily be determined by standard and well known procedures such as those procedures set forth in U.S. Pat. No. 4,415,191. For example, determination of whether the DBH inhibition allows time-dependent kinetics is exemplified by the procedure wherein enzymatic oxygenation by DBH is determined in aqueous solution in the presence of molecular oxygen, an electron donor such as ascorbate, and the necessary cofactors for the enzyme at a pH of 5 and a temperature of 20°-40° C., preferably 37° C. The test compound is added at the desired concentration, and the system is incubated. At different time intervals, aliquots are taken and DBH activity is measured using tyramine as the substrate and the reaction followed by measuring the oxygen uptake using a polarographic electrode and an oxygen monitor by the method of S. May et al., J. Biol. Chem. 256, 2258 (1981). The inhibition constants for the inactivation of DBH by each compound are then determined by conventional procedures such as the method of Kitz and Wilson, J. Biol. Chem. 237, 3245 (1962). When the compounds shown in Table I were tested according to the above described procedure, the DBH inhibitory activity increased as a function of the time of incubation. […]
# MAO A = molecular target: T1, MAO A (Rattus norvegicus, UniProt P21396); test: Inhibition of rat brain mitochondrial MAO A (Table III); format: biochemical
# T1 construct: from tissue; host or cells: rat brain mitochondria
# T1 sequence (P21396 1-526): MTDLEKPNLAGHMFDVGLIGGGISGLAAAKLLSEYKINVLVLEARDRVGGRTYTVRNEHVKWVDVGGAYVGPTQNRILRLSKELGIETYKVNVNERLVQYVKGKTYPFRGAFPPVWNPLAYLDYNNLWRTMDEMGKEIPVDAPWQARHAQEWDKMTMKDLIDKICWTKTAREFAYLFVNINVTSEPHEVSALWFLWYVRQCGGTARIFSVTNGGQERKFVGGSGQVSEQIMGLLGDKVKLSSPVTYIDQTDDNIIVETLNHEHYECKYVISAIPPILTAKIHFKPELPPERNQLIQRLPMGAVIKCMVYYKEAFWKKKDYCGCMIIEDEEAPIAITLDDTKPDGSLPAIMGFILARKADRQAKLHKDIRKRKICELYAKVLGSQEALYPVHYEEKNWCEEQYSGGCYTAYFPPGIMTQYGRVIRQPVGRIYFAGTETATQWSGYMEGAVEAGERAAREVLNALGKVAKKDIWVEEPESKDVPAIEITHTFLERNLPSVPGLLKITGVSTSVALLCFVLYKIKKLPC
# Description: (§1) The compounds of this invention were conceived as mechanism-based inhibitors of DBH similar to that reported by S. May, J. Biol. Chem. 256, 2258 (1981). These compounds bear some resemblance to the catecholamines which are destroyed by the enzyme monoamine oxidase (MAO) in order to terminate neurotransmission. Because of their structural similarity to the catecholamines they may act as MAO substrates and, as such, act as k cat inhibitors of MAO. These compounds were evaluated as mechanism-based inhibitors of monooxygenasess by the method of A. Christmas et. al., Br. J. Pharmacol. 45, 490 (1972).
# [1] = system: Rat Brain - Mitochondrial MAO; test: Time-dependant inhibition of rat brain mitochondrial MAO (Table III); format: biochemical
# Description: as §1
# [2] = molecular target: T2, dopamine β-hydroxylase (DBH) (Bos taurus, UniProt P15101); test: Dopamine β-hydroxylase (DBH) inhibitory activity in vitro, time-dependent inactivation (Table I); format: biochemical; settings: for Ki: inhibition constant for inactivation of DBH; for Ki / kinact: tyramine substrate, pH 5, Kitz and Wilson; for kinact: rate of inactivation of DBH
# T2 sequence (P15101 1-610): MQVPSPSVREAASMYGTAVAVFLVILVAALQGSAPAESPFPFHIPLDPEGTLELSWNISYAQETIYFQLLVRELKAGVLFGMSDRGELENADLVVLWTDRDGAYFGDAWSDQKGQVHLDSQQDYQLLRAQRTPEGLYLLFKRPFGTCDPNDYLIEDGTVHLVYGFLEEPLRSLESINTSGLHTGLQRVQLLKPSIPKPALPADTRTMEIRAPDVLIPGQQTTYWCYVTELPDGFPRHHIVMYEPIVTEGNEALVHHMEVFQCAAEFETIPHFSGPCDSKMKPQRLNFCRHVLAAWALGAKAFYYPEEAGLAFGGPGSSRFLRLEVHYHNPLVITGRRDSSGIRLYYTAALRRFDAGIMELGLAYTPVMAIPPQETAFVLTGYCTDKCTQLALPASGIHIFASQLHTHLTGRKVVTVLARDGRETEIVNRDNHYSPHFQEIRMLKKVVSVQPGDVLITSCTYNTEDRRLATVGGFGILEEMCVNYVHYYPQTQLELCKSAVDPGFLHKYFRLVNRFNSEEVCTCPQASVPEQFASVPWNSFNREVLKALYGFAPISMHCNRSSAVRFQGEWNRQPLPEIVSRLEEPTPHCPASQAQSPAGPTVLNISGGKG
# Description: The dopamine β-hydroxylase inhibitory properties of the compounds of this invention can readily be determined by standard and well known procedures such as those procedures set forth in U.S. Pat. […] For example, determination of whether the DBH inhibition allows time-dependent kinetics is exemplified by the procedure wherein enzymatic oxygenation by DBH is determined in aqueous solution in the presence of molecular oxygen, an electron donor such as ascorbate, and the necessary cofactors for the enzyme at a pH of 5 and a temperature of 20°-40° C., preferably 37° C. The test compound is added at the desired concentration, and the system is incubated. At different time intervals, aliquots are taken and DBH activity is measured using tyramine as the substrate and the reaction followed by measuring the oxygen uptake using a polarographic electrode and an oxygen monitor by the method of S. May et al., J. Biol. Chem. 256, 2258 (1981). The inhibition constants for the inactivation of DBH by each compound are then determined by conventional procedures such as the method of Kitz and Wilson, J. Biol. Chem. 237, 3245 (1962). When the compounds shown in Table I were tested according to the above described procedure, the DBH inhibitory activity increased as a function of the time of incubation. The initial rate of decrease of activity increased with increasing concentration of inhibitor.
# MAO B = molecular target: T3, MAO B (Rattus norvegicus, UniProt P19643); test: Inhibition of rat brain mitochondrial MAO B (Table III); format: biochemical
# T3 construct: from tissue; host or cells: rat brain mitochondria
# T3 sequence (P19643 1-520): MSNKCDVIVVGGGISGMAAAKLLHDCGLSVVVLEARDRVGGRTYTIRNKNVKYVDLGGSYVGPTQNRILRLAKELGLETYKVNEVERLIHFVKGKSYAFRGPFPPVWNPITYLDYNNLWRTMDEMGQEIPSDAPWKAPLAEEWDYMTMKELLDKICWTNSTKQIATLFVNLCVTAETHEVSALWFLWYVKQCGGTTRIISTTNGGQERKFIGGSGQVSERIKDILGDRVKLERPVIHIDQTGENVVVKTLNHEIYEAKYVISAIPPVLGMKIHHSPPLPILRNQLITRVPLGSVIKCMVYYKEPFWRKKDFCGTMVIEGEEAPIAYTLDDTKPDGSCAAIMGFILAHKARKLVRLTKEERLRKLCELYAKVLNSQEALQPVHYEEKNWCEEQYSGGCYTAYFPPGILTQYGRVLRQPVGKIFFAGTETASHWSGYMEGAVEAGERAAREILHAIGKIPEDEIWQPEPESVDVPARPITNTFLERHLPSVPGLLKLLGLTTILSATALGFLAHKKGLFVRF
# Description: as §1
SMILES,Maximum % Change Mean Blood Pressure (hypertensive rats; 10 mg/kg ip) [%],Maximum % Change Mean Blood Pressure (hypertensive rats; 30 mg/kg ip) [%],Maximum % Change Mean Blood Pressure (hypertensive rats; 50 mg/kg po) [%],Maximum % Change Mean Blood Pressure (hypertensive rats; 100 mg/kg ip) [%],Maximum % Change Mean Blood Pressure (hypertensive rats; 100 mg/kg po) [%],Maximum % Change Mean Blood Pressure (hypertensive rats; 200 mg/kg po) [%],"Time-dependant inhibition t1/2 (purified DBH; 5.10^-5 M final concentration, purified DBH) [min]",DBH inhibitory activity (in words) (purified DBH; compared with MAO inhibition),Ki (MAO A) [µM],MAO A Tau50 (MAO A) [min],MAO inhibition (in words) [1],"Relative DBH inhibitory potency of the isomers ([2]; 2- vs. 3-thiophene isomer, Table I)",Ki [2] [µM],kinact [2] [s⁻¹],Ki (MAO B) [µM],MAO B Tau50 (MAO B) [min]
"C=C(CN)c1cccs1 [β-Methylene-2-Thiopheneethanamine, β-methylene-2-thiopheneethanamine]",11,22,11,52,14,14,7,potent DBH inhibitory activity,320,2.6,weak MAO inhibitory activity; also recorded: Weak time-dependant MAO inhibitor,the more potent isomer,2000,0.000333,110,4.9
"C=C(CN)c1ccsc1 [β-Methylene-3-Thiopheneethanamine, β-methylene-3-thiopheneethanamine]",,,,,,,,,,,,,2000,6.67e-05,,
